Among the data in patent US11648254B2 (Kumquat Biosciences Inc., priority 2021, dated 2023) are IC50 values, retold here.

Like-named read-outs stand apart in the source and are kept apart here.

The target of the experiment is SOS1 (Homo sapiens (Human), UniProt Q07889). Nature of the experiment: Ras-SOS interaction assay (HTRF). In kind it is biochemical. The source says: The ability of any compound of the present disclosure to reduce a Ras protein signaling output by, e.g., interfering or disrupting interaction (or binding) between SOS1 and a Ras protein can be assessed in vitro. For example, the equilibrium interaction of human SOS1 (hSOS1) with human wildtype Kras or K-Ras mutant (e.g., hK-Ras G12C mutant, or hK-RasG12C) can be assessed as a proxy or an indication for a subject compound's ability to inhibit SOS. Detection of such interaction is achieved by measuring homogenous time-resolved fluorescence resonance energy transfer (HTRF) from (i) a fluorescence resonance energy transfer (FRET) donor (e.g., antiGST-Europium) that is bound to GST-tagged K-RasG12C to (ii) a FRET acceptor (e.g., anti-6His-XL665) bound to a His-tagged hSOS1.
SOS1, sequence (Q07889 564-1049): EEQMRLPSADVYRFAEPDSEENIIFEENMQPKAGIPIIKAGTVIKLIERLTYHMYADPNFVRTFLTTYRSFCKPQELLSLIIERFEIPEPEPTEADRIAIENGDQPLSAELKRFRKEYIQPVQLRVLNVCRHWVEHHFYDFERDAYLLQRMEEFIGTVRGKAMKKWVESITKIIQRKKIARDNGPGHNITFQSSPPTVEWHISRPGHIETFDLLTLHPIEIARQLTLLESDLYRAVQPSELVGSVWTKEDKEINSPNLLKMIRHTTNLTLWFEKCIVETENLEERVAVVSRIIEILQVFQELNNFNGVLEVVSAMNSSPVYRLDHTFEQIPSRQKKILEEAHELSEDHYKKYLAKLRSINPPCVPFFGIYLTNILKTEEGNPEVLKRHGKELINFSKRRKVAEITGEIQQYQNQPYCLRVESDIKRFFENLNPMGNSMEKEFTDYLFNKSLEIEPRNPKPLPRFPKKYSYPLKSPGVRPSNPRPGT
The assay buffer can contain 5 mM HEPES pH 7.4, 150 mM NaCl, 10 mM EDTA, 1 mM DTT, 0.05% BSA, 0.0025% (v/v) Igepal and 100 mM KF. A Ras working solution is prepared in assay buffer containing typically 10 nM of the protein construct (e.g., GST-tagged hK-RasG12C) and 2 nM of the FRET donor (e.g., antiGST-Eu(K) from Cisbio, France). A SOS1 working solution is prepared in assay buffer containing typically 10 nM of the protein construct (e.g., His-hSOS1) and 10 nM of the FRET acceptor (e.g., anti-6His-XL665 from Cisbio, France). An inhibitor control solution is prepared in assay buffer containing 10 nM of the FRET acceptor without the SOS1 protein.
A fixed reaction mixture with or without test compound is transferred into a 384-well plate. Ras working solution is added to all wells of the test plate. SOS1 working solution is added to all wells except for those that are subsequently filled the inhibitor control solution. After approximately 60 min incubation, the fluorescence is measured with a M1000Pro plate reader (Tecan) using HTRF detection (excitation 337 nm, emission 1: 620 nm, emission 2: 665 nm). Compounds are tested in duplicates at different concentrations (for example, 10 μM, 2.5 μM, 0.63 μM, 0.16 μM, 0.04 μM, 0.01 μM test compound). The ratiometric data (i.e., emission 2 divided by emission 1) is used to calculate IC50 values against SOS1 using GraphPad Prism (GraphPad software).

Where [1] appears, read: K-RasG13D utilized, read-out: IC50 inhibition of SOS.
[2] abbreviates: K-RasG13D, read-out: IC50 value against SOS1.

Take `COc1nc2nc(C)nc(N[C@H](C)c3cccc(C(F)(F)C(C)(C)OC4CN(C(=O)OC(C)(C)C)C4)c3F)c2cc1N1CCN(C(C)C)CC1` [Compound 241, tert-butyl (R)-3-((1,1-difluoro-1-(2-fluoro-3-(1-((6-(4-isopropylpiperazin-1-yl)-7-methoxy-2-methylpyrido[2,3-d]pyrimidin-4-yl)amino)ethyl)phenyl)-2-methylpropan-2-yl)oxy)azetidine-1-carboxylate]: the IC50 under setting [1] is less than 0.1 µM. On the same count and under the same terms, the value for `COc1nc2nc(OCC3CN(C(C)C)C3)nc(N[C@H](C)c3cccc(C(F)(F)F)c3F)c2cc1C1CCS(=O)(=O)CC1` [Compound 286, (R)-4-(4-((1-(2-fluoro-3-(trifluoromethyl)phenyl)ethyl)amino)-2-((1-isopropylazetidin-3-yl)methoxy)-7-methoxypyrido[2,3-d]pyrimidin-6-yl)tetrahydro-2H-thiopyran 1,1-dioxide] was 0.1 to 1 µM. Take `COc1nc2nc(C)nc(N[C@H](C)c3cccc(C(F)F)c3F)c2cc1C1CCN(C(=O)NC2CN(C)C2)CC1` [Compound 124, (R)-4-(4-((1-(3-(difluoromethyl)-2-fluorophenyl)ethyl)amino)-7-methoxy-2-methylpyrido[2,3-d]pyrimidin-6-yl)-N-(1-methylazetidin-3-yl)piperidine-1-carboxamide]: the IC50 is less than 0.1 µM under setting [1] and less than 0.05 µM under setting [2].

Consider `COc1nc2nc(CCN3CCC3)nc(N[C@H](C)c3cccc(C(C)(F)F)c3F)c2cc1C1(C#N)CC1` [Compound 425, (R)-1-(2-(2-(azetidin-1-yl)ethyl)-4-((1-(3-(1,1-difluoroethyl)-2-fluorophenyl)ethyl)amino)-7-methoxypyrido[2,3-d]pyrimidin-6-yl)cyclopropane-1-carbonitrile], for which the IC50 was less than 0.1 µM under setting [1] and less than 0.05 µM under setting [2]. Consider `Cc1nc(N[C@H](C)c2cccc(C(F)F)c2F)c2cc(C3(C#N)CC3)c(NCC3COC3)nc2n1` [Compound 398, (R)-1-(4-((1-(3-(difluoromethyl)-2-fluorophenyl)ethyl)amino)-2-methyl-7-((oxetan-3-ylmethyl)amino)pyrido[2,3-d]pyrimidin-6-yl)cyclopropane-1-carbonitrile], for which the IC50 under setting [1] lay in the range of 0.1 to 1 µM. The same measure, in the same setting: to `C[C@@H](Nc1ncnc2nc(O[C@H]3CCOC3)c(C3(C#N)CC3)cc12)c1cccc(C(F)F)c1F` [Compound 230, 1-(4-(((R)-1-(3-(difluoromethyl)-2-fluorophenyl)ethyl)amino)-7-(((S)-tetrahydrofuran-3-yl)oxy)pyrido[2,3-d]pyrimidin-6-yl)cyclopropane-1-carbonitrile] belongs 0.1 to 1 µM. Take `Cc1nc(N[C@H](C)c2cccc(C(F)F)c2F)c2cc(N3CCN(C)CC3)c(OCCN(C)C)nc2n1` [Compound 371, (R)-N-(1-(3-(difluoromethyl)-2-fluorophenyl)ethyl)-7-(2-(dimethylamino)ethoxy)-2-methyl-6-(4-methylpiperazin-1-yl)pyrido[2,3-d] pyrimidin-4-amine]: the IC50 is, setting by setting: under setting [1], less than 0.1 µM; under setting [2], less than 0.05 µM. With `COc1nc2nc(C)nc(N[C@H](C)c3cccc(C(F)(F)F)c3F)c2cc1N1CCN(C(=O)C2CN(C)CCO2)CC1` (stereo partly drawn) [Compound 311, (4-(4-(((R)-1-(2-fluoro-3-(trifluoromethyl)phenyl)ethyl)amino)-7-methoxy-2-methylpyrido[2,3-d]pyrimidin-6-yl)piperazin-1-yl)(4-methylmorpholin-2-yl)methanone], the IC50 under setting [1] fell in the range of 0.1 to 1 µM. On to `COc1nc2ncnc(N[C@H](C)c3cccc(C(F)F)c3F)c2cc1C1CCN(C2CCOCC2)CC1` [Compound 416, (R)-N-(1-(3-(difluoromethyl)-2-fluorophenyl)ethyl)-7-methoxy-6-(1-(tetrahydro-2H-pyran-4-yl)piperidin-4-yl)pyrido[2,3-d]pyrimidin-4-amine], for which the IC50 is less than 0.1 µM under setting [1] and less than 0.05 µM under setting [2]. On to `COc1nc2nc(N3CCC3)nc(N[C@H](C)c3cccc(C(F)F)c3F)c2cc1N1CCN(C(C)C)CC1` [Compound 168, (R)-2-(azetidin-1-yl)-N-(1-(3-(difluoromethyl)-2-fluorophenyl)ethyl)-6-(4-isopropylpiperazin-1-yl)-7-methoxypyrido[2,3-d]pyrimidin-4-amine], for which, under setting [1], the IC50 fell in the range of 0.1 to 1 µM. Regarding `COc1nc2nc(C)nc(N[C@H](C)c3cccc(C(F)(F)C4CN(C(C)C)C4)c3F)c2cc1C1(C#N)CC1` [Compound 284, (R)-1-(4-((1-(3-(difluoro(1-isopropylazetidin-3-yl)methyl)-2-fluorophenyl)ethyl)amino)-7-methoxy-2-methylpyrido[2,3-d]pyrimidin-6-yl)cyclopropane-1-carbonitrile], the IC50 under setting [1] was less than 0.1 µM. Take `COc1nc2nc(C)nc(N[C@H](C)c3cccc(C(F)(F)F)c3F)c2cc1N1CCN(C2CCOCC2)CC1` [Compound 290, (R)-N-(1-(2-fluoro-3-(trifluoromethyl)phenyl)ethyl)-7-methoxy-2-methyl-6-(4-(tetrahydro-2H-pyran-4-yl)piperazin-1-yl)pyrido[2,3-d]pyrimidin-4-amine]: the IC50 runs as follows: under setting [1], less than 0.1 µM; under setting [2], less than 0.05 µM. For `Cc1nc(N[C@H](C)c2cccc(C(F)(F)F)c2C)c2cc(C3(C#N)CC3)c(Cl)nc2n1` [Compound 423, (R)-1-(7-chloro-2-methyl-4-((1-(2-methyl-3-(trifluoromethyl)phenyl)ethyl)amino)pyrido[2,3-d]pyrimidin-6-yl)cyclopropane-1-carbonitrile], under setting [1], the IC50 was 0.1 to 1 µM. With `COc1nc2nc(C)nc(N[C@H](C)c3cccc(C(F)F)c3F)c2cc1C1CCN(C(=O)NC2CNC2)CC1` [Compound 122, (R)-N-(azetidin-3-yl)-4-(4-((1-(3-(difluoromethyl)-2-fluorophenyl)ethyl)amino)-7-methoxy-2-methylpyrido[2,3-d]pyrimidin-6-yl)piperidine-1-carboxamide], the IC50 is, setting by setting: under setting [1], less than 0.1 µM; under setting [2], less than 0.05 µM.

Take `COc1nc2nc(N3CC(N(C)C)C3)nc(N[C@H](C)c3cccc(C(F)F)c3F)c2cc1C1(C#N)CC1` [Compound 237, (R)-1-(4-((1-(3-(difluoromethyl)-2-fluorophenyl)ethyl)amino)-2-(3-(dimethylamino)azetidin-1-yl)-7-methoxypyrido[2,3-d]pyrimidin-6-yl)cyclopropane-1-carbonitrile]: the IC50 under setting [1] was in the range of 0.1 to 1 µM.

As for `COc1nc2nc(C)nc(N[C@H](C)c3cccc(C(F)F)c3F)c2cc1S(=O)(=O)N1CCN(C)CC1` [Compound 106, (R)—N-(1-(3-(difluoromethyl)-2-fluorophenyl)ethyl)-7-methoxy-2-methyl-6-((4-methylpiperazin-1-yl)sulfonyl)pyrido[2,3-d]pyrimidin-4-amine], under setting [1], the IC50 was less than 0.1 µM. As to `C[C@@H](Nc1ncnc2nc(OC3COC3)c(C3(C(F)F)CC3)cc12)c1cccc(C(F)F)c1F` [Compound 408, (R)-N-(1-(3-(difluoromethyl)-2-fluorophenyl)ethyl)-6-(1-(difluoromethyl)cyclopropyl)-7-(oxetan-3-yloxy)pyrido[2,3-d]pyrimidin-4-amine], the IC50 under setting [1] fell in the range of 0.1 to 1 µM. As to `Cc1nc(N[C@H](C)c2cccc(C(F)F)c2F)c2cc(C3(C#N)CC3)c(NCC(C)(C)O)nc2n1` [Compound 319, (R)-1-(4-((1-(3-(difluoromethyl)-2-fluorophenyl)ethyl)amino)-7-((2-hydroxy-2-methylpropyl)amino)-2-methylpyrido[2,3-d]pyrimidin-6-yl) cyclopropane-1-carbonitrile], the IC50 under setting [1] lay within 0.1 to 1 µM.
